Reference: patent US8377886B2, “Use of gamma secretase inhibitors and notch pathway inhibitors for treatment and prevention of renal disease” (Albert Einstein College of Medicine of Yeshiva University, priority 2007, dated 2013)

Assays:
[1] = test system: podocytes; assay: ICN1 induced podocyte apoptosis, AnnexinV staining; format: cell-based, mouse; settings: for ICN1 induced increase in annexinV positive cell number: tamoxifen 1.5 μM, counted 24 hrs after induction, GSIXX 4 μM, pifithrin-alpha 15 μM
Description: (§1) Infection of Podocytes. Cultivation of conditionally immortalized mouse podocytes was performed as described^41. Briefly, cells were propagated in the undifferentiated state on type1 collagen at 33° C. in RPMI 1640 in the presence of 10% FBS (Hyclone) and 20 U/ml interferon γ (Sigma Chemical Co., St Louis, Mo.). To induce differentiation, cells were maintained at 37° C. without interferon for 10 days. Podocytes were infected with MIGR-ICN1-EGFP (kind gift of Dr Warren Pear, University of Pennsylvania) or pBMN-EGFP (Orbigen) retrovirus. Briefly vectors were transfected into Phoenix Eco packaging cells (Orbigen) and supernatant was harvested 60-72 hrs after transfection. Podocytes were infected with virus containing supernatant (3-4 times, every 6 hours) in the presence of polybrene […]. After 24 hrs of infection, the medium was changed and cells were either treated with tamoxifen to induce ICN1 expression or left untreated. Infection efficiency was estimated under fluorescence microscope by the presence of GFP positive cells as it ranged from 70-80%.
AnnexinV staining. AnnexinV staining was performed using AnnexinV-Alexa 568 staining kit (Roche). Cells were cultured in 24 well plates, washed and incubated with AnnexinV-Alexa 568 in incubation buffer according to manufacturer's instruction. Cells were washed, and fluorescent labeled cells were counted. Total number of cells were counted by DAPI counterstain. Nuclear condensation was assessed by DAPI staining.

[2] = test system: ICN1; assay: TGFβ induced increase of ICN1 levels in cultured podocytes, Western blot; format: cell-based, mouse; settings: 5 ng/ml TGFβ; 100 nM GSI XX; 10 μM SB203580, PD or LY; GSI IX and GSI X data not shown
Description: as §1
Western Blotting. Cells were lysed in RIPA buffer in the presence of protease and phosphatase inhibitors; equal amount (30 μg) of protein was loaded on 10% SDS gels. Gels were transferred to PVDF membranes (Bio-Rad), blocked in 5% milk and incubated with the primary antibody (1:1,000 dilution) overnight at 4° C. in 1% milk. Membranes were incubated with HRP conjugated anti-mouse or anti-rabbit secondary antibody (Jackson Immunologicals) for 1 hr at room temperature and developed using ECL method (Pierce). The following primary antibodies were used in this study; phospho-p38 (#4631), total p38 (#9217), phospho-AKT (#4051), total AKT (#9272), cleaved PARP, cleaved caspase3, phospho-53 were from Cell Signaling, phospho-JNK, p53, p21 were from Santa Cruz Val^1744ICN1 and β-actin antibody was purchased from Abcam (Cambridge, Mass.).

[3] = test system: Smad3 and Akt phosphorylation; assay: TGFβ induced Smad3 and Akt phosphorylation in podocytes, Western blot; format: cell-based, mouse; settings: 5 ng/ml TGFβ; GSI XX 1 μM
Description: as §1
(§2) Western Blotting. Cells were lysed in RIPA buffer in the presence of protease and phosphatase inhibitors; equal amount (30 μg) of protein was loaded on 10% SDS gels. Gels were transferred to PVDF membranes (Bio-Rad), blocked in 5% milk and incubated with the primary antibody (1:1,000 dilution) overnight at 4° C. in 1% milk. […]

[4] = test system: p53; assay: TGFβ induced phosphorylated p53 levels in podocytes, Western blot; format: cell-based, mouse; settings: after 4 hrs of incubation with TGFβ
Description: as §1, §2

[5] = test system: podocytes; assay: TGFβ induced podocyte apoptosis, annexinV positive cell number; format: cell-based, mouse; settings: 24 hrs following TGFβ; pre-incubation GSIXX 1 μM or pifithrinα 15 μM
Description: as §1
AnnexinV staining. AnnexinV staining was performed using AnnexinV-Alexa 568 staining kit (Roche). […] Cells were washed, and fluorescent labeled cells were counted. Total number of cells were counted by DAPI counterstain. Nuclear condensation was assessed by DAPI staining.

[6] = test system: PAN treated rats; assay: PAN induced nephrotic syndrome in rats; format: in vivo, rat
Description: Male Sprague Dawley rats (75-100 gr˜4 weeks old) were purchased from Charles Rivers. Animals were injected with puromycin aminonucleoside 20 mg/kg ip ×1. BDZ (dissolved in Methocell, Tween-80) was administered ip 500 μg/100 gr rat once a day. Animals were sacrificed on day 8 after PAN administration.
Phenotypic analysis. Albuminuria was determined using Mouse or Rat Albumin specific ELISA kits (Exocell and Bethyl Laboratories) and urine creatinine was determined using Creatinine companion (Exocell), following manufacturer's protocol.
Histologic analysis. Histologic analysis was performed on formalin fixed paraffin embedded kidney sections that was stained with Periodic-Acid-Schiff (PAS) or Gomori Trichrome. Slides were examined and pictures were taken with Nikon Eclipse TE300 microscope and SPOT Diagnostic CCD camera. Transmission electron microscopy was performed in the Analytical Imaging Facility at AECOM on glutaraldehyde fixed, epoxy embedded kidney samples stained with uranyl acetate and lead citrate. Samples were evaluated using JEOL 1200EX, electron microscope (AECOM, Analytical Imaging Facility).
Immunohistochemistry. Immunohistochemistry was performed on formalin fixed paraffin embedded kidney sections using the following primary antibodies Val^1744ICN1 (Abcam), ICN2 (Abeam). Staining was visualized using peroxidase conjugated anti mouse of anti rabbit Vectastain Elite kit and DAB (Vector Labs). Terminal d-UTP labeling (TUNEL) staining was performed using TUNEL kit (Chemicon) following manufacturer's instructions. For fluorescent labeling, 5 μm frozen sections were fixed in ice cold acetone, blocked with 10% horse serum and incubated with primary antibodies, WT-1 (Santa Cruz), nephrin (kind gift of Dr Lawrence Holzman, University of Michigan), synaptopodin and podocin (Sigma-Aldrich), p21 (Santa Cruz), and developed using FITC conjugated anti-mouse secondary antibody or Cy3 conjugated anti-rabbit antibodies (Jackson laboratory) and mounted with Fluoromount).
Glomerular isolation. Glomerular isolation was performed using serial sieving of 120, 100 and 71 μm diameter.
QRT-PCR. RNA was prepared from isolated glomeruli or from podocytes using RNAeasy Mini kit (Qiagen, Valencia). The quality was analyzed on agarose gels and the quantity was measured on NanoDrop. 1 ug RNA was reverse transcribed using cDNA Archival Kit (Applied Biosystems). QRT-PCR analysis was performed using ABI 7900HT-Sequence Detection System. SYBR Green Master Mix and 3-step standard cycling conditions and sequence specific primers for QRT-PCR analysis were used. Melting curve was examined to verify that a single product was amplified. For quantitative analysis all samples were normalized to ubiquitin C and HPGRT gene expression using the ΔΔCT value method.
It was examined whether the Notch pathway inhibition (with the use of a gamma-secretase inhibitor) could be used as a potential strategy for the treatment of albuminuric glomerular disease^31. Rats we treated with DBZ 500 μg/100 gr ip. daily stating 12 hrs prior to PAN injection. Animals were sacrificed on day 8 as the PAN treated rats appeared moribund and most of them had severe nephrotic syndrome (ascites and edema). DBZ treatment normalized the Notch pathway gene expression increase of PAN treated rats (FIG. 1e, FIG. 12a). […] Similarly, expression of p53 and p21 was lower in BDZ treated rats compared to PAN only injected animals (FIG. 110.

[7] = test system: Balb/c mice; assay: Adriamycin (doxorubicin) induced nephrotic syndrome of mice; format: in vivo, mouse; settings: male Balb/c mice, 12 days following 12 mg/kg doxorubicin (adriamycin); doxorubicin only 2659 μg/mg creatinine
Description: Adriamycin-induced nephrotic syndrome was induced in 8 weeks old male Balb/c mice (n=10/per each groups) via intravenous injection (to the tail vein) of 12 mg/kg adriamycin. Animals were sacrificed 12 days following the injection. All animal studies were approved by the Animal Care Committee at the Albert Einstein College of Medicine (AECOM). Animals were maintained under specific pathogen free conditions. Phenotypic analysis. Albuminuria was determined using Mouse or Rat Albumin specific ELISA kits (Exocell and Bethyl Laboratories) and urine creatinine was determined using Creatinine companion (Exocell), following manufacturer's protocol.

[8] = test system: FA-treated mice; assay: Murine folic acid (FA)-induced nephrotoxicity model; format: in vivo, mouse; settings: FA mice treated for 1 week with DBZ
Description: Experiments were conducted using the murine folic acid (FA)-induced nephrotoxicity model, which is characterized by acute tubular injury followed by both tubular regeneration and chronic changes such as patchy interstitial fibrosis. Strong upregulation was found for mRNA levels of Notch 1-4, the ligands Jagged 1 and 2, delta like-1 and -4, and the downstream target genes Hes1, Hey1, and HeyL in total kidney homogenates 1 day after FA injection, which remained increased up to 1 week.
To further investigate the role of Notch in FA-induced renal injury, mice were treated for 1 week with the gamma-secretase inhibitor (GSI) dibenzazepine (DBZ) that blocks activation of the Notch pathway by interfering with Notch cleavage. […] In control kidneys, large numbers of interstitial fibroblasts and significant tubulointerstitial fibrosis were observed indicating a misdirected renal regeneration.

[9] = test system: unilateral ureteral obstruction model; assay: Unilateral ureteral obstruction model of renal tubulointerstitial fibrosis; format: in vivo, mouse; settings: animals injected with GSI XX (DBZ)
Description: Increased Notch pathway gene expression was also observed in mouse models of chronic tubulointerstitial fibrosis (unilateral ureteral obstruction) and in patients with chronic renal disease and tubulointerstitial fibrosis. […] The role and regulation of Notch pathway genes were also examined in other models of tubulointerstitial fibrosis. […] To examine the role of Notch activation in this model, animals were injected with GSI XX (DBZ). DBZ reduced the expression of Notch target gene HeyL and reduced expression of pro-fibrotic genes collagen, fibronectin and alpha smooth muscle action.

[10] = test system: p21; assay: TGFβ induced p21 protein expression in podocytes, Western blot; format: cell-based, mouse; settings: after 24 hrs TGFβ
Description: as §1, §2

[11] = PAN rats, DBZ 500 μg/100 gr ip daily

## C[C@H](NC(=O)Cc1cc(F)cc(F)c1)C(=O)N[C@@H]1C(=O)N(C)c2ccccc2-c2ccccc21 [DBZ, (S,S)-2-[2-(3,5-Difluorophenyl)acetylamino]-N-(5-methyl-6-oxo-6,7-dihydro-5H-dibenzo[b,d]azepin-7-yl)propionamide]
[1]; listed as GSI XX
  ICN1 induced increase in annexinV positive cell number: did not alter
[1]; listed as GSIXX
  ICN1 induced increase in annexinV positive cell number: did not affect
[2]
  TGFβ induced increase of ICN1 levels: fully sensitive
[3]
  TGFβ induced Smad3 and Akt phosphorylation: did not interfere
[4]
  TGFβ induced increase of phosphorylated p53 levels: fully sensitive
[5]
  TGFβ induced increase in annexinV positive cell number: prevented
[6]; DBZ 500 μg/100 gr ip daily from 12 hrs prior to PAN, QRT-PCR
  Notch pathway gene expression increase of PAN treated rats: normalized
[6]; PAN rats, 500 μg/100 gr ip daily, compared to PAN only, after 6 days
  albuminuria (albumin/creatinine ratio): significantly less
[6]; [11]
  foot process effacement (EM analysis): almost fully abrogated
  podocyte apoptosis (TUNEL staining): fully prevented
[6]; PAN rats, DBZ 500 μg/100 gr ip daily, day 8
  decrease in nephrin and podocin levels (mRNA and protein): protected
[6]; PAN rats, whole kidney lysates QRT-PCR, compared to PAN only
  expression of p53 and p21: lower
[7]
  albuminuria: 800 μg/mg creatinine
[8]
  FA-induced upregulation of fibrotic remodeling genes (TGF-β, fibronectin, MMP-2 and 9): greatly reduced
  increase in serum creatinine: did not affect
  rate of tubular apoptosis: did not affect
  rise in HeyL expression: completely blunted
  tubular damage scores: did not affect
[9]
  expression of Notch target gene HeyL: reduced
  expression of pro-fibrotic genes collagen, fibronectin and alpha smooth muscle action: reduced
  tubulointerstitial fibrosis (evaluated on PAS staining): reduced

## C[C@H](NC(=O)Cc1cc(F)cc(F)c1)C(=O)N[C@H](C(=O)OC(C)(C)C)c1ccccc1 [GSI IX, N—[N-(3,5-Difluorophenacetyl-L-alanyl)]-S-phenylglycine t-Butyl Ester]
[2]
  TGFβ induced increase of ICN1 levels: fully sensitive

## CC(C)C[C@H](NC(=O)[C@H](Cc1ccccc1)C[C@@H](O)[C@H](Cc1ccccc1)NC(=O)OC(C)(C)C)C(=O)N[C@@H](Cc1ccccc1)C(N)=O [GSI X, {1S-Benzyl-4R-[1-(1S-carbamoyl-2-phenethylcarbamoyl)-1S-3-methylbutylcarbamoyl]-2R-hydroxy-5-phenylpentyl}carbamic Acid tert-butyl Ester]
[2]
  TGFβ induced increase of ICN1 levels: fully sensitive

## COc1cccc(-c2cc(=O)c3ccccc3o2)c1N [PD98059]
[2]
  TGFβ induced increase of ICN1 levels: not sensitive

## C[S+]([O-])c1ccc(-c2nc(-c3ccncc3)c(-c3ccc(F)cc3)[nH]2)cc1 (stereo not drawn) [SB203580]
[1]
  ICN1 induced increase in annexinV positive cell number: did not alter
[2]
  TGFβ induced increase of ICN1 levels: not sensitive

## Cc1ccc(C(=O)Cn2c3c(sc2=N)CCCC3)cc1 [pifithrin alpha]
[1]
  ICN1 induced increase in annexinV positive cell number: decreased
[10]
  TGFβ induced increase in p21 protein expression: blocked
[5]
  TGFβ induced increase in annexinV positive cell number: prevented

## Z-vad
[1]; podocytes with tamoxifen-induced ICN1, pretreatment with Z-vad (10 μM) or Z-LEHD (10 μM)
  ICN1 induced apoptosis (AnnexinV/GFP positive cells): prevented
